Assay results as given in US7563899B2, “(S)-N-methylnaltrexone” (Progenics Pharmaceuticals, Inc., priority 2005, dated 2009).
pEC50: −log10 of the molar value. Counter-ions that a name gives are not always drawn.

Biological target: T1, human μ (mu, MOP) receptor (Homo sapiens, UniProt P35372)
T1 construct: expressed in transfected cells; host or cells: CHO cells
Experiment: cAMP assay in CHO cells expressing human mu receptor, agonist assay
Type: cell-based

T1 sequence (P35372 whole entry): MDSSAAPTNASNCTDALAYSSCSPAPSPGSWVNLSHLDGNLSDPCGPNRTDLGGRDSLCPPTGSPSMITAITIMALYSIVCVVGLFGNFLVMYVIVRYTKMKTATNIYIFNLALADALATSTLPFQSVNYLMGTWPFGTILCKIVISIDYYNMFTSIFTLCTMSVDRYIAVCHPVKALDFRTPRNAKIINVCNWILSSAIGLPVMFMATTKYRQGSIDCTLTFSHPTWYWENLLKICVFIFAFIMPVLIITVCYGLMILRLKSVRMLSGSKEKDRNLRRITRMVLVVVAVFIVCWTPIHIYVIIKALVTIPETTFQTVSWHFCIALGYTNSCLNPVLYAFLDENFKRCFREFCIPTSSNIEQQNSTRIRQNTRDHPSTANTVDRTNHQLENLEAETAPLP

C[N@@+]1(CC2CC2)CC[C@]23c4c5ccc(O)c4OC2C(=O)CCC3(O)C1C5 (stereo partly drawn) [S-MNTX, (S)-N-(cyclopropylmethyl)-noroxymorphone methyl salt]
pEC50 (CHO cells, human recombinant mu receptor, 10 uM forskolin, 100 uM IBMX, read-out: EC50 (agonist response, inhibition of forskolin-induced cAMP)): 6.22
nature of the agonist response (cAMP agonist assay): complete (not partial)
cAMP agonist assay value (Table IX.1) (log{M} conc −4.0): 3
cAMP agonist assay value (Table IX.1) (log{M} conc −4.5): −3
cAMP agonist assay value (Table IX.1) (log{M} conc −5.0): 4
cAMP agonist assay value (Table IX.1) (log{M} conc −5.5): 11
cAMP agonist assay value (Table IX.1) (log{M} conc −6.0): 32
cAMP agonist assay value (Table IX.1) (log{M} conc −6.5): 66
cAMP agonist assay value (Table IX.1) (log{M} conc −7.0): 70
cAMP agonist assay value (Table IX.1) (log{M} conc −7.5): 79
cAMP agonist assay value (Table IX.1) (log{M} conc −8.0): 104
cAMP agonist assay value (Table IX.1) (log{M} conc −9.0): 86
